Experimental findings from patent US9914874B2, “Composite nanoparticles including a malonic acid derivative” (3M INNOVATIVE PROPERTIES COMPANY, priority 2013, dated 2018) are described below.

The nature of this data set: Solubility of the malonic acid derivative in toluene. The note with it: based on total weight of the solution. The data set is classed as physicochemical.

As to `CC(CC=C(C(=O)O)C(=O)O)CC(C)(C)C` (stereo not shown) [Example 3, 2-(3,5,5-Trimethylhexylidene)propanedioic Acid], the solubility in toluene entry is “greater than 1 weight percent”.
